Measurements published in BindingDB's records for PubMed 33486199 (Queen Mary University of London, 2021).

Biological target: T1, fMet-Leu-Phe receptor (Homo sapiens, UniProt P21462)
T1 sequence (P21462 whole entry): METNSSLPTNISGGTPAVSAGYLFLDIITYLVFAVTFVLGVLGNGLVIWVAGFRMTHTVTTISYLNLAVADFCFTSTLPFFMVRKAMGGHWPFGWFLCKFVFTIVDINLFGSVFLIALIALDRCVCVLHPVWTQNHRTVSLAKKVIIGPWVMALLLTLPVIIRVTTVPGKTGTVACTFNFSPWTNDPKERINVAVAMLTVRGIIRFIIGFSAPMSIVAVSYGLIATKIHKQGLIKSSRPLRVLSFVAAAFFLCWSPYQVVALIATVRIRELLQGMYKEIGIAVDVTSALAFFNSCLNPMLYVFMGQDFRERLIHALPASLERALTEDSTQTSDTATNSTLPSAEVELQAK
Assay: Agonist activity at human FPR1 expressed in CHO cells assessed as cAMP level incubated for 1.5 hr by HTRF assay

O=C(Nc1ccc(Cl)cc1F)N[C@@H]1CCN(c2ccc(-c3cnn(C(F)F)c3)c(F)c2F)C1=O [US10676431, Example 79]
EC50: > 10 µM

CP(C)(=O)c1ccccc1-c1ccc(N2CC(CO)[C@@H](NC(=O)Nc3ccc(Cl)cc3F)C2=O)c(F)c1F (some centres not stated) [US10676431, Example 125]
EC50: > 10 µM
